Laboratory results published in patent US20170050957A1, “4-AMINO-6-(HETEROCYCLIC)PICOLINATES AND 6-AMINO-2-(HETEROCYCLIC)PYRIMIDINE-4-CARBOXYLATES AND THEIR USE AS HERBICIDES” (Dow AgroSciences LLC, priority 2013, published 2017).
Like-named read-outs stand apart in the source and are kept apart here.

Columns and labels:
[1] = test system: Key Grass and Sedge Weeds as well as Grass Crops; assay: Post-emergent Test II herbicidal activity (Table 16); type: in vivo; conditions: post-emergence, 336 h, 14 d; for pest or weed control at 35 g/ha: 35 g ai/ha; for pest or weed control at 70 g/ha: 70 g ai/ha; for pest or weed control at 140 g/ha: 140 g ai/ha
In short: (§1)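 Plants at first-second true leaf stage, grown 7-21 d in greenhouse (~15 h photoperiod, 23-29 °C day), were track-sprayed at 187 L/ha with compound in acetone/DMSO/water/isopropanol/crop oil/Triton X-155 at a high rate plus 1/2× to 1/16× dilutions. Injury scored visually after 14 d versus untreated plants, 0 (none) to 100% (complete kill).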

[2] = test system: Key Broadleaf Weed and Crop Species; assay: Post-emergent Test II herbicidal activity (Table 15); type: in vivo; conditions: post-emergence, 336 h, 14 d; for pest or weed control at 35 g/ha: 35 g ai/ha; for pest or weed control at 70 g/ha: 70 g ai/ha; for pest or weed control at 140 g/ha: 140 g ai/ha
In short: as §1

[3] = Cyperus esculentus, yellow nutsedge (Cyperus esculentus), read-out: Visual Growth Reduction (%) 14 Days After Application, CYPES
[4] = Echinochloa crus-galli, barnyardgrass (Echinochloa crus-galli), read-out: Visual Growth Reduction (%) 14 Days After Application, ECHCG
[5] = Oryza sativa, rice (Oryza sativa), read-out: Visual Growth Reduction (%) 14 Days After Application, ORYSA
[6] = Setaria faberi, giant foxtail (Setaria faberi), read-out: Visual Growth Reduction (%) 14 Days After Application, SETFA
[7] = Triticum aestivum, wheat, spring (Triticum aestivum), read-out: Visual Growth Reduction (%) 14 Days After Application, TRZAS
[8] = Zea mays, maize, corn (Zea mays), read-out: Visual Growth Reduction (%) 14 Days After Application, ZEAMX
[9] = Abutilon theophrasti, velvetleaf (Abutilon theophrasti), read-out: Visual Growth Reduction (%) 14 Days After Application, ABUTH
[10] = Amaranthus retroflexus, redroot pigweed (Amaranthus retroflexus), read-out: Visual Growth Reduction (%) 14 Days After Application, AMARE
[11] = Brassica napus, oilseed rape, canola (Brassica napus), read-out: Visual Growth Reduction (%) 14 Days After Application, BRSNN
[12] = Chenopodium album, lambsquarters (Chenopodium album), read-out: Visual Growth Reduction (%) 14 Days After Application, CHEAL
[13] = Euphorbia heterophylla, wild poinsettia (Euphorbia heterophylla), read-out: Visual Growth Reduction (%) 14 Days After Application, EPHHL
[14] = Helianthus annuus, sunflower (Helianthus annuus), read-out: Visual Growth Reduction (%) 14 Days After Application, HELAN

| SMILES | pest or weed control at 35 g/ha [1, 3] | pest or weed control at 70 g/ha [1, 3] | pest or weed control at 140 g/ha [1, 3] | pest or weed control at 35 g/ha [1, 4] | pest or weed control at 70 g/ha [1, 4] | pest or weed control at 140 g/ha [1, 4] | pest or weed control at 35 g/ha [1, 5] | pest or weed control at 70 g/ha [1, 5] | pest or weed control at 140 g/ha [1, 5] | pest or weed control at 35 g/ha [1, 6] | pest or weed control at 70 g/ha [1, 6] | pest or weed control at 140 g/ha [1, 6] | pest or weed control at 35 g/ha [1, 7] | pest or weed control at 70 g/ha [1, 7] | pest or weed control at 140 g/ha [1, 7] | pest or weed control at 35 g/ha [1, 8] | pest or weed control at 70 g/ha [1, 8] | pest or weed control at 140 g/ha [1, 8] | pest or weed control at 35 g/ha [2, 9] | pest or weed control at 70 g/ha [2, 9] | further results |
| --- | --- | --- | --- | --- | --- | --- | --- | --- | --- | --- | --- | --- | --- | --- | --- | --- | --- | --- | --- | --- | --- |
| COC(=O)c1nc(-c2ccc3cc[nH]c3c2)nc(N)c1OC [Compound 1.32] | 0 to 29% | 0 to 29% | 0 to 29% | 0 to 29% | 0 to 29% | 0 to 29% | 0 to 29% | 0 to 29% | 0 to 29% | 0 to 29% | 0 to 29% | 0 to 29% | 0 to 29% | 0 to 29% | 0 to 29% | 0 to 29% | 0 to 29% | 0 to 29% | 0 to 29% | 0 to 29% | melting point: 190 to 191 °C; pest or weed control at 140 g/ha [2, 9]: 0 to 29%; pest or weed control at 35 g/ha [2, 10]: 0 to 29%; pest or weed control at 70 g/ha [2, 10]: 30 to 44%; pest or weed control at 140 g/ha [2, 10]: 60 to 74%; pest or weed control at 35 g/ha [2, 11]: 30 to 44%; pest or weed control at 70 g/ha [2, 11]: 45 to 59%; pest or weed control at 140 g/ha [2, 11]: 60 to 74%; pest or weed control at 35 g/ha [2, 12]: 0 to 29%; pest or weed control at 70 g/ha [2, 12]: 0 to 29%; pest or weed control at 140 g/ha [2, 12]: 75 to 84%; pest or weed control at 35 g/ha [2, 13]: 0 to 29%; pest or weed control at 70 g/ha [2, 13]: 60 to 74%; pest or weed control at 140 g/ha [2, 13]: 85 to 94%; pest or weed control at 35 g/ha [2, 14]: 45 to 59%; pest or weed control at 70 g/ha [2, 14]: 60 to 74%; pest or weed control at 140 g/ha [2, 14]: 75 to 84% |
| Nc1cc(-c2ccc3cc[nH]c3c2F)nc(C(=O)O)c1Cl [Compound 1.24] | 0 to 29% | 0 to 29% | 0 to 29% | 0 to 29% | 0 to 29% | 0 to 29% | 0 to 29% | 0 to 29% | 0 to 29% | 0 to 29% | 45 to 59% | 60 to 74% | 0 to 29% | 30 to 44% | 45 to 59% | 0 to 29% | 0 to 29% | 0 to 29% | 85 to 94% | 95 to 100% | pest or weed control at 140 g/ha [2, 9]: 95 to 100%; pest or weed control at 35 g/ha [2, 10]: 95 to 100%; pest or weed control at 70 g/ha [2, 10]: 95 to 100%; pest or weed control at 140 g/ha [2, 10]: 95 to 100%; pest or weed control at 35 g/ha [2, 11]: 85 to 94%; pest or weed control at 70 g/ha [2, 11]: 45 to 59%; pest or weed control at 140 g/ha [2, 11]: 95 to 100%; pest or weed control at 35 g/ha [2, 12]: 85 to 94%; pest or weed control at 70 g/ha [2, 12]: 95 to 100%; pest or weed control at 140 g/ha [2, 12]: 95 to 100%; pest or weed control at 35 g/ha [2, 13]: 95 to 100%; pest or weed control at 70 g/ha [2, 13]: 95 to 100%; pest or weed control at 140 g/ha [2, 13]: 95 to 100%; pest or weed control at 35 g/ha [2, 14]: 60 to 74%; pest or weed control at 70 g/ha [2, 14]: 75 to 84%; pest or weed control at 140 g/ha [2, 14]: 85 to 94% |
| COC(=O)c1nc(-c2cc3[nH]ccc3cc2F)cc(N)c1Cl [Compound 1.25] | 0 to 29% | 0 to 29% | 0 to 29% | 0 to 29% | 0 to 29% | 0 to 29% | 0 to 29% | 0 to 29% | 0 to 29% | 0 to 29% | 0 to 29% | 0 to 29% | 0 to 29% | 0 to 29% | 0 to 29% | 0 to 29% | 0 to 29% | 0 to 29% | 0 to 29% | 0 to 29% | pest or weed control at 140 g/ha [2, 9]: 30 to 44%; pest or weed control at 35 g/ha [2, 10]: 75 to 84%; pest or weed control at 70 g/ha [2, 10]: 85 to 94%; pest or weed control at 140 g/ha [2, 10]: 95 to 100%; pest or weed control at 35 g/ha [2, 11]: 60 to 74%; pest or weed control at 70 g/ha [2, 11]: 75 to 84%; pest or weed control at 140 g/ha [2, 11]: 85 to 94%; pest or weed control at 35 g/ha [2, 12]: 0 to 29%; pest or weed control at 70 g/ha [2, 12]: 60 to 74%; pest or weed control at 140 g/ha [2, 12]: 60 to 74%; pest or weed control at 35 g/ha [2, 13]: 0 to 29%; pest or weed control at 70 g/ha [2, 13]: 0 to 29%; pest or weed control at 140 g/ha [2, 13]: 30 to 44%; pest or weed control at 35 g/ha [2, 14]: 0 to 29%; pest or weed control at 70 g/ha [2, 14]: 0 to 29%; pest or weed control at 140 g/ha [2, 14]: 0 to 29% |
